Test results from patent US20230330107A1, “METHODS TO PREVENT HIGH-GRADE SEROUS OVARIAN CANCER AND BREAST CANCER BY ADMINISTERING ANTIPROGESTINS” (priority 2020, published 2023).
“And” between values parts separate entries of the source, which are not always exact repeats. Equal entries are not always repeated. “Also recorded” adds a separate entry of the source.

Experiments:
ovariectomized DKO mice = type: in vivo
Source text: (§1) Generation of DKO and cPR-DKO mice. DKO mice (Dicer1^flox/flox Pten flox/flox Amhr2^cre/+) were generated. A mouse line carrying Pgr^flox/flox, a conditional progesterone receptor (PR) gene (cPR), was provided by Drs. John Lydon and Francesco DeMayo. Conditional PR (Pgr^flox/flox)) mice were crossed with DKO mice, generating cPR- DKO mice (Pgr^flox/floxDicer1^flox/flox Pten^flox/flox Amhr2^cre/+). These Dicer1-Pten double-knockout (DKO) mice developed metastatic HGSCs arising from the fallopian tube with 100% penetrance. […] All DKO mice die of widespread peritoneal metastases. Besides mirroring the clinical features of human HGSC, these mouse HGSCs closely resemble human HGSC with histopathological, molecular, and genomic similarities. Mouse use and experiments were approved by the Institutional Animal Care and Use Committee (IACUC) at Indiana University School of Medicine.
Mouse bilateral ovariectomy. To examine the effect of ovary on HGSC development in the fallopian tube, both ovaries were surgically excised with the fallopian tubes remaining intact in DKO mice. The surgery was performed at 5-6 weeks of age, when there is no sign of tumors in the fallopian tube. These ovary-deficient DKO mice were then monitored for tumor development. Another set of DKO mice without surgery served as controls. Prior to surgery, DKO mice were anesthetized using Avertin (2,2,2,-tribromoethano) (125-250 mg/kg) (Sigma-Aldrich, St. Louis, Missouri, USA). For analgesia, Carprofen (5-10 mg/kg) (TCI America, Portland, OR, USA) was used a one dose pre-operatively and every 12 hours thereafter for 24-48 hours post-operatively.
(§2) Hormone pellet implantation. To evaluate the effects of steroid hormones on HGSC development, upon ovariectomy at 5-6 weeks of age, DKO mice were implanted subcutaneously with a pellet of 17-β estradiol (E2) (0.72 mg/90 days/mouse), progesterone (P4) (25 mg/90 days/mouse), or combined E2 (0.72 mg) & P4 (25 mg). Also, for shorter periods of P4 exposure, ovariectomized DKO mice were treated with a P4 pellet of 2 mg (1 week) or 6 mg (3 weeks). Another set of ovariectomized DKO mice implanted with a placebo (a pellet without hormone) served as controls. […] For a control group, DKO mice received a placebo pellet for mifepristone. After anesthesia, a pellet was inserted subcutaneously (SQ) after a single skin incision (0.5-1.0 cm) on the back near ovary location. The skin incision was closed with either monofilament suture or wound clips. The pellets were purchased from Innovative Research of America (Sarasota, FL, USA).
(§3) Statistical analysis. Statistical analyses were performed using a GraphPad Prism software (Version 8, GraphPad Software, Inc.). P values less than 0.05 were considered statistically significant. Log-rank test was used to compare survival distributions between different experimental groups of mice; Student's t-test to compare hormone levels between placebo-treated ovariectomized DKO mice and progesterone (P4)-treated ovariectomized DKO mice at 1 week, 3 weeks, and 3 months; Student's t-test to compare hormone levels between ovariectomized DKO mice (Ovex) and each experimental group of DKO mice; and Fisher's exact test to analyze PR expression in benign and malignant ovarian tumors.
Progesterone induces HGSC with metastatic potential in ovary-deficient DKO mice. Ovary-deficient DKO mice were treated with steroid hormones. […] Tumor development and mouse survival were then monitored.

[1] = Measurement of serum hormone levels (ELISA) in ovariectomized DKO mice; type: in vivo, mouse; settings: P4-treated ovariectomized DKO mice
Procedure: Measurement of hormone levels. Blood samples were collected in serum separation tubes (BD Microtainer® Tube; 365967; BD Biosciences, San Jose, CA, USA) from DKO mice or ovariectomized DKO mice with or without hormone treatment. Serum was isolated by centrifugating blood at 14,000 rpm for 5 minutes at room temperature. Measurements of serum progesterone (P4), 17-β estradiol (E2), testosterone (T), follicle-stimulating hormone (FSH), and luteinizing hormone (LH) levels were performed using ELISA (enzyme-linked immunoassay: P4, E2, and T) or RIA (radioimmunoassay: FSH and LH) at the Center for Research Ligand Assay and Analysis Core in Reproduction at the University of Virginia.

[2] = tested on: DKO mice (Dicer1-Pten double-knockout, HGSC model); test: Mifepristone pellet in DKO mice with intact ovaries: HGSC development and survival; type: in vivo, mouse; settings: for median survival: DKO mice, range in brackets
Source text: as §1, §2, §3
Progesterone generates its biological effects through the progesterone receptors (PR). Thus, to evaluate further whether progesterone signaling is critical to the development of HGSC with metastatic potential, DKO mice were treated with the PR antagonist mifepristone (RU486), an antiprogestin, that acts by binding to PR and inhibiting the transcription of its target genes. […] As expected, DKO mice treated with a placebo developed primary HGSC coupled with abundant peritoneal HGSC metastases (FIG. 1A-B). […] Histologically, the fallopian tubes from mifepristone-treated mice were composed of cystic and fibrous tissues as well as small segments of carcinoma cells in the stroma, accompanied by limited peritoneal metastasis (FIG. 1E-G).

[3] = mifepristone 3 mg/m for 3 months
[4] = mifepristone 16.7 mg/m for 6 months

C[C@]12CC[C@@H]3c4ccc(O)cc4CC[C@H]3[C@@H]1CC[C@@H]2O [E2, 17-β estradiol]
ovariectomized DKO mice with tumors or swelling in the uterus (ovariectomized DKO mice; female, DKO (Dicer1flox/flox Ptenflox/flox Amhr2cre/+), mouse, in vivo, 3 months): 90.9%
tumor phenotype in ovariectomized DKO mice (in words) (ovariectomized DKO mice; s.c. hormone pellet for 3 months): did not produce any tumors in the fallopian tube

CC(=O)[C@H]1CC[C@H]2[C@@H]3CCC4=CC(=O)CC[C@]4(C)[C@H]3CC[C@]12C [P4, progesterone]
hazard ratio (HR) of survival vs placebo-treated ovariectomized DKO mice (ovariectomized DKO mice; P4 25 mg pellet for 3 months): 3.01
ovariectomized DKO mice that developed predominantly HGSC in the fallopian tube with widespread peritoneal metastases and ascites (ovariectomized DKO mice; P4 25 mg pellet for 3 months, 32/32 mice): 100%
median survival (ovariectomized DKO mice; ovariectomized DKO mice, s.c. hormone pellet for 3 months (P4 25 mg; E2 0.72 mg), range in brackets): 6.5 months of age
serum progesterone levels (in words) [1]: elevated serum progesterone levels

CC#C[C@]1(O)CC[C@H]2[C@@H]3CCC4=CC(=O)CCC4=C3[C@@H](c3ccc(N(C)C)cc3)C[C@@]21C [mifepristone, (8S,11R,13S,14S,17S)-11-[4-(dimethylamino)phenyl]-17-hydroxy-13-methyl-17-prop-1-ynyl-1,2,6,7,8,11,12,14,15,16-decahydrocyclopenta[a]phenanthren-3-one]
median survival ([2]; mifepristone 3 mg/m for 3 months, s.c. pellet from 5-6 weeks of age): 11.2 (5.9-21.3) months of age
median survival ([2]; mifepristone 16.7 mg/m for 6 months, s.c. pellets): 13.1 (6.6-24.3) months of age and 13.1 months of age
DKO mice not inhibited by mifepristone (HGSC development and peritoneal metastasis) ([2]; high dose, 16.7 mg/m for 6 m, 2/21 mice): 9.5%
DKO mice that still developed fallopian tube HGSC and widespread peritoneal metastases ([2]; low-dose group, 3 mg/m, 7/21 mice): 33.3%
hazard ratio (HR) of survival vs placebo-treated DKO mice [2, 3]: 0.40
lived longer than DKO mice with placebo [2, 3]: ~4 months
effect on HGSC development and peritoneal metastasis (in words) ([2]; mifepristone 3 mg/m for 3 months vs placebo): developed little peritoneal metastasis; also recorded: effectively suppressed HGSC development in the fallopian tube and peritoneal metastasis
effect on HGSC development and peritoneal metastasis (in words) ([2]; mifepristone 16.7 mg/m for 6 m): effectively suppressed HGSC development and peritoneal metastasis
hazard ratio (HR) of survival vs placebo-treated DKO mice [2, 4]: 0.13
lived longer than placebo-treated DKO mice [2, 4]: ~6 months
